Tests used:
[1] = system: Landrace Pig Bladder; assay: Functional potassium channel opening activity in isolated bladder strips (field-stimulated twitch); settings: for Index: ED50 for P1075 divided by ED50 for the test agonist, averaged over tissues; for Efficacy (% P1075) / Emax: maximal efficacy relative to P1075, field stimulated bladder strips; for pD2 / EC50: negative logarithm of ED50; for Emax / EC50: Sus scrofa; for EC50: read-out: pD2 (converted)
Experimental: Compounds were evaluated for functional potassium channel opening activity using tissue strips obtained from Landrace pig bladders. Landrace pig bladders were obtained from female Landrace pigs of 9-30 kg. Landrace pigs were euthanized with an intraperitoneal injection of pentobarbital solution, Somlethal®, J. A. Webster Inc. Sterling Mass. The entire bladder was removed and immediately placed into Krebs Ringer bicarbonate solution (composition, mM: NaCl, 120; […] Dextrose, 4.7; […] Propranolol (0.004 mM) was included in all of the assays to block β-adrenoceptors. The trigonal and dome portions were […], Strips 3-5 […] (mm) wide and 20 mm long were prepared from the remaining tissue cut in a circular fashion. The mucosal layer was removed. One end was fixed to a stationary glass rod and the other to a Grass FT03 transducer at a basal preload of 1.0 g. Two parallel platinum electrodes were included in the stationary glass trod to provide field stimulation of 0.05 Hz, 0.5 milli-seconds at 20 volts. […] Tissues were allowed to equilibrate for at least 60 minutes and primed with 80 mM KCl. A control concentration response curve (cumulative) was generated for each tissue using the potassium channel opener […] as the control agonist. […] After a 60 minute rinsing period, a concentration response curve (cumulative) was generated for the test agonist in the same fashion as that used for the control agonist […]. The maximal efficacy of each compounds (expressed as % relative to […]) is reported. The amount of agent necessary to cause 50% of the agent's maximal response (ED50) was calculated using “ALLFIT” (DeLean et al., Am. J. […] Agonist potencies were also expressed as an index relative to […]. The index was calculated by dividing the ED50 for […] by the ED50 for the test agonist in a given tissue. Each tissue was used for only one test agonist, and the indices obtained from each tissue were averaged to provide an average index of potency.

[2] = system: Guinea-Pig Bladder (GPB) Cells; assay: Membrane Hyperpolarization (MHP) assay, DiBAC(4)3 / FLIPR; settings: for Maximal Response (% P1075): maximal steady-state hyperpolarization, normalized to 10 μM P1075 (100%); for EC50: membrane hyperpolarization, GPB cells; for Emax: read-out: Maximal Response (% P1075), maximal steady-state hyperpolarization, normalized to 10 μM P1075 (100%)

Row | EC50 [2] [nM] | EC50 [1] [nM] | EC50 ([2]; Cavia porcellus) [nM] | EC50 ([2]; Hydrochloride) [nM] | Compound | Index [1] | Efficacy (% P1075) [1] [% P1075] | pD2 [1] | Maximal Response (% P1075) [2] [% P1075] | Emax [1] [%] | Emax ([2]; Cavia porcellus) [%] | Index ([1]; Hydrochloride) | pD2 ([1]; Hydrochloride) | Maximal Response (% P1075) ([2]; Hydrochloride)
1 | 3.4 |  |  |  | O=C1COCC2=C1C(c1ccc(Cl)c(Cl)c1)C1=C(COCC1=O)N2 [Example 33, 5-(3,4-dichlorophenyl)-5,10-dihydro-1H,3H-dipyrano[3,4-b:4,3-e]pyridine-4,6(7H,9H)-dione] | 0.27 | 93 | 5.9 | 92 |  |  |  |  | 
2 | 99 |  |  |  | Cc1ccc(C2C3=C(COCC3=O)NC3=C2C(=O)COC3)cc1[N+](=O)[O-] [Example 59, 5-(4-methyl-3-nitrophenyl)-5,10-dihydro-1H,3H-dipyrano[3,4-b:4,3-e]pyridine-4,6(7H,9H)-dione] | 0.17 | 73 | 5.9 | 94 |  |  |  |  | 
3 |  | 1000 | 730 |  | Cl.O=C1CNCC2=C1C(c1ccc(F)c(Br)c1)C1=C(COCC1=O)N2 (stereo not shown) [Example 24, 5-(3-bromo-4-fluorophenyl)-5,8,9,10-tetrahydro-1H-pyrano[3,4-b][1,7]naphthyridine-4,6(3H,7H)-dione Hydrochloride] | 0.055 |  |  |  | 100 | 74 |  |  | 
4 | 64 |  |  |  | O=C1COCC2=C1C(c1ccc(Cl)c([N+](=O)[O-])c1)C1=C(COCC1=O)N2 [Example 28, 5-(4-chloro-3-nitrophenyl)-5,10-dihydro-1H,3H-dipyrano[3,4-b:4,3-e]pyridine-4,6(7H,9H)-dione] | 0.42 | 94 | 6.7 | 98 |  |  |  |  | 
5 | 3.9 |  |  |  | O=C1COCC2=C1C(c1ccc(Br)c(Br)c1)C1=C(COCC1=O)N2 [Example 55, 5-(3,4-dibromonhenyl)-5,10-dihydro-1H,3H-dipyrano [3,4-b:4,3-e]pyridine-4,6(7H,9H)-dione] | 0.35 | 80 | 6.2 | 108 |  |  |  |  | 
6 |  | 126000 | 2600 |  | Cl.O=C1CNCC2=C1C(c1ccc(F)c(Br)c1)C1=C(CCCS1(=O)=O)N2 (stereo not shown) [Example 9, 10-(3-bromo-4-fluorophenyl)-3,4,6,7,8,10-hexahydro-2H-thiopyrano[3,2-b][1,7]naphthyridin-9(5H)-one 1,1-dioxide Hydrochloride] | 0.0015 |  |  |  | 82 | 89 |  |  | 
7 | 1800 |  |  |  | O=C1COCC2=C1C(c1ccc(Cl)c([N+](=O)[O-])c1)C1=C(CCS1(=O)=O)N2 (single isomer, unassigned; (-)) [Example 19, (−)-9-(4-chloro-3-nitrophenyl)-2,3,5,9-tetrahydro-4H-pyrano[3,4-b]thieno[2,3-e]pyridin-8(7H)-one 1,1-dioxide] | 0.70 | 100 | 6.0 | 94 |  |  |  |  | 
8 |  |  |  | 190 | Cl.O=C1CCC2=C1C(c1ccc(F)c(Br)c1)C1=C(CNCC1=O)N2 (single isomer, unassigned; (-)) [Example 5, (−)-5-(3-bromo-4-fluorolphenyl)-2,3,5,7,8,9-hexahydro-1H-cyclopenta[b][1,7]naphthyridine-4,6-dione Hydrochloride] |  | 100 |  |  |  |  | 0.16 | 6.4 | 97
9 | 15 |  |  |  | O=C1COCC2=C1C(c1ccc(F)c(C(F)(F)F)c1)C1=C(COCC1=O)N2 [Example 32, 5-[4-fluoro-3-(trifluoromethyl)phenyl]-5,10-dihydro-1H, 3H-dipyrano[3,4-b:4,3-e]pyridine-4,6(7H,9H)-dione] | 0.41 | 100 | 6.3 | 102 |  |  |  |  | 
10 |  |  |  | 570 | Cl.O=C1CCCC2=C1C(c1ccc(F)c(Br)c1)C1=C(CNCC1=O)N2 (single isomer, unassigned; (-)) [Example 7, (−)-5-(3-bromo-4-fluorophenyl)-2,3,5,8,9,10-hexahydrobenzo[b][1,7]naphthyridine-4,6(1H, 7H)-dione Hydrochloride] |  |  |  |  | 97 |  | 0.040 | 5.4 | 75
11 |  | 50.1 | 0.64 |  | O=C1COCC2=C1C(c1ccc(F)c(I)c1)C1=C(CCS1(=O)=O)N2 (stereo not shown) [Example 37, 9-(4-fluoro-3-iodophenyl)-2,3,5,9-tetrahydro-4H-pyrano[3,4-b]thieno[2,3-e]pyridin-8(7H)-one 1,1-dioxide] | 2.1 |  |  |  | 95 | 105 |  |  | 
12 |  | 631 | 84 |  | O=C1CCCC2=C1C(c1ccc(F)c(Br)c1)C1=C(CSCC1=O)N2 (stereo not shown) [Example 50, 5-(3-bromo-4-fluorophenyl)-5,8,9,10-tetrahydro-1H-thiopyrano[3,4-b]quinoline-4,6(3H,7H)-dione] | 0.28 |  |  |  | 96 | 108 |  |  | 
13 | 240 |  |  |  | O=C1COCC2=C1C(c1ccc(F)c(Br)c1)C1=C(CCS1(=O)=O)N2 (single isomer, unassigned; (-)) [Example 13, (−)-9-(3-bromo-4-fluorophenyl)-2,3,5,9-tetrahydro-4H-pyrano[3,4-b]thieno[2,3-e]pyridin-8(7H)-one 1,1-dioxide] | 0.13 | 98 | 5.9 | 101 |  |  |  |  | 
14 |  | 3980 | 1000 |  | Cl.O=C1CCC2=C1C(c1ccc(F)c(Br)c1)C1=C(CNCC1=O)N2 (single isomer, unassigned; (+)) [Example 6, (+)-5-(3-bromo-4-fluorophenyl)-2,3,5,7,8,9-hexahydro-1H-cyclopenta[b][1,7]naphthyridine-4,6-dione Hydrochloride] |  |  |  |  | 100 | 83 | 0.022 |  | 
15 |  |  |  | 680 | Cl.O=C1CNCC2=C1C(c1ccc(F)c(Br)c1)C1=C(COC1=O)N2 (stereo not shown) [Example 39, 9-(3-bromo-4-fluorophenyl)-5,6,7,9-tetrahydrofuro[3,4-b][1,7]naphthyridine-1,8(3H,4H)-dione Hydrochloride] |  |  |  |  | 96 |  | 0.036 | 5.6 | 80
16 |  | 200 | 11 |  | O=C1COCC2=C1[C@H](c1ccc(F)c(Br)c1)C1=C(COC1=O)N2 (single isomer, unassigned) [Example 43] | 0.68 |  |  |  | 88 | 98 |  |  | 
17 | 91 |  |  |  | O=C1COCC2=C1C(c1ccc3nonc3c1)C1=C(COCC1=O)N2 [Example 34, 5-(2,1,3-benzoxadiazol-5-yl)-5,10-dihydro-1H,3H-dipyrano[3,4-b:4,3-e]pyridine-4,6(7H,9H)-dione] | 0.96 | 93 | 7.0 | 88 |  |  |  |  | 
18 |  | 79.4 | 4.9 |  | O=C1COCC2=C1[C@H](c1ccc(F)c(I)c1)C1=C(COC1=O)N2 (single isomer, unassigned) [Example 78] | 0.79 |  |  |  | 96 | 97 |  |  | 
19 | 58 |  |  |  | O=C1COCC2=C1C(c1ccc(Cl)c([N+](=O)[O-])c1)C1=C(CCS1(=O)=O)N2 (single isomer, unassigned; (+)) [Example 18, (+)-9-(4-chloro-3-nitrophenyl)-2,3,5,9-tetrahydro-4H-pyrano[3,4-b]thieno[2,3-e]pyridin-8(7H)-one 1,1-dioxide] | 1.6 |  | 7.3 | 95 | 100 |  |  |  | 
20 | 82 |  |  |  | O=C1COCC2=C1C(c1csc([N+](=O)[O-])c1)C1=C(COCC1=O)N2 [Example 36, 5-(5-nitro-3-thienyl)-5,10-dihydro-1H,3H-dipyrano[3,4-b:4,3-e]pyridine-4,6(7H,9H)-dione] | 0.24 | 100 | 6.5 | 98 |  |  |  |  | 

Reference: patent US6642222B2, “Pyrano, piperidino, and thiopyrano compounds and methods of use” (Abbott Laboratories, priority 1998, dated 2003)
